The values that follow come from paper PMC10611619, “[^99mTc]Tc-PentixaTec: development, extensive pre-clinical evaluation, and first human experience” (European Journal of Nuclear Medicine and Molecular Imaging, 2023).

Series [1] can be described thus: Lipophilicity (logD), shake-flask n-octanol/PBS pH 7.4. Type of series: physicochemical. Here is the method:
The lipophilicity (logD, partition coefficient between n-octanol and PBS, pH 7.4) of all ^99mTc-labeled compounds in this study was determined using a modified shake-flask method as described.

The conditions of series [2]: in vivo; cited from earlier work.
The subject of series [3] is hCXCR4 expressing Chem-1 cells. The experiment in a line: Dual tracer internalization studies with [^125I]FC-131 as internal reference. In kind it is cell-based, human. To be noted: for internalization in % of total activity / Internalization (% of reference): 90 min; for Internalization (% of reference): normalized to specific internalization of [^125I]FC-131, Chem-1 cells; for internalization area under the curve (AUC): internalization kinetics, Fig. 1. Here is the method: Dual tracer internalization studies using [^125I]FC-131 as internal reference were conducted in hCXCR4 expressing Chem-1 cells in analogy to a previously established protocol. A detailed assay protocol is provided in the supplementary material section.
On the day prior to the experiment, Chem-1 cells were seeded in 24-well-plates at a density of app. 1·10^5 cells per well. On the day of the experiment, the culture medium was removed and the cells were washed once with 250 µL of unsupplemented medium before being left to equilibrate in 200 µL of assay medium (DMEM/F-12 containing 5% BSA) at 37°C for a minimum of 15 min before the experiment. Cells were then coincubated with the respective ^99mTc-labeled compound of interest (0.2 nM) and [^125I]FC-131 (0.2 nM) in the absence (total binding) or presence (non-specific binding) of 100 µM AMD3100 for different time points up to 120 min at 37°C (n=3 wells, respectively, per time point). Incubation was terminated by placing the plate on an ice pack for app. 1 min and by subsequent removal of the incubation medium. Cells were thoroughly rinsed with 250 µL of HBSS. After washing twice with 250 µL of ice cold acid wash buffer (0.02 M NaOAc buffered with AcOH to pH = 5), cells were lysed with 250 µL of 1 N NaOH. The lysate was tranferred to vials and combined with 250 µL of HBSS used for rinsing the wells. Quantification of the amount of free, acid-releasable and internalized ^99mTc- and ^125I-activity was performed using dual isotope protocol on a WIZARD^2® 2480 automatic γ-Counter (Perkin Elmer, Waltham MA, USA).
All data were corrected for non-specific internalization in the presence of […] AMD3100 and were then normalized to the specific internalization observed of the standard radioligand [^125I]FC-131.

Series [4] in a line: Biodistribution in Jurkat xenograft-bearing mice, 1 h p.i. In kind it is in vivo. To be noted: female, CB17/SCID, mouse, iv, total radioactivity, n = 5, mean ± SD. As to the method:
(§1) Female CB17/SCID mice bearing subcutaneous Jurkat human T cell lymphoma xenografts (for more detailed information, see supplemental material) were injected intravenously with the respective ^99mTc-labeled tracer (5–20 MBq, 0.1–0.2 nmol/mouse) under isofluorane anesthesia and were sacrificed at 1 h post-injection (p.i.). The organs of interest were dissected, and the activity concentration in weighed tissue samples was quantified using a WIZARD^2® 2480 automatic γ-Counter from Perkin Elmer (Waltham MA, USA). Biodistribution data are given in %iD/g and represent means ± SD (groups of n = 4–5 animals). Statistical analysis (t-test) was performed using GraphPad Prism.
(§2) To establish tumor xenografts, Jurkat cells (2 – 3x10^7 cells) were suspended in a mixture of RPMI 1640 medium and Matrigel (1/1; v/v) (BD Biosciences, Heidelberg, Germany), and injected subcutaneously into the right shoulder of 6–10 weeks old CB17-SCID mice from either Charles River GmbH (Sulzfeld, Germany) or the in-house mouse breeding facility. As soon as tumors had grown to a diameter of 5–8 mm (4 – 10 weeks after inoculation), mice were used for the experiments.

The test system of series [5] is Jurkat xenograft bearing CB17/SCID mice. The series is described as above. Type of series: in vivo. The conditions noted are these: Jurkat xenograft, n = 5, mean ± SD. As to the method:
as §1, §2

For another series, the system named is mCXCR4. To be noted: Eµ-myc 1080 mouse lymphoma cells; cited from earlier work.
The next series concerns the target human CXCR4 (hCXCR4) (Homo sapiens, UniProt P61073). Kind of series: Competitive binding to hCXCR4 (IC50), Jurkat cells, [^125I]FC-131 as radioligand. The conditions noted are these: [^125I]FC-131 radioligand.

Where two headings read alike, the source gives them in different places. Where a SMILES comes first, the peptide text is derived from it. Bridges are numbered along the chain shown (N, C = ends). Roman numbers before positions name the chains, in order. Side-chain parts run from the residue outwards. [ ]: non-standard residue; d: D form. The star is where a group is joined. DOTA = O=C(O)CN1CCN(CC(=O)O)CCN(CC(=O)*)CCN(CC(=O)O)CC1; dTyr(3-I) = N[C@H](Cc1ccc(O)c(I)c1)C(=O)O; 2Nal = N[C@@H](Cc1ccc2ccccc2c1)C(=O)O; dNMeOrn = CN[C@H](CCCN)C(=O)O; HYNIC = NNc1ccc(C(=O)*)cn1; 4Amb = NCc1ccc(C(=O)O)cc1; Mercaptoacetyl = O=C(CS)*; 4Abz = Nc1ccc(C(=O)O)cc1; dDap = NC[C@@H](N)C(=O)O

Sequence of human CXCR4 (hCXCR4) (P61073 whole entry): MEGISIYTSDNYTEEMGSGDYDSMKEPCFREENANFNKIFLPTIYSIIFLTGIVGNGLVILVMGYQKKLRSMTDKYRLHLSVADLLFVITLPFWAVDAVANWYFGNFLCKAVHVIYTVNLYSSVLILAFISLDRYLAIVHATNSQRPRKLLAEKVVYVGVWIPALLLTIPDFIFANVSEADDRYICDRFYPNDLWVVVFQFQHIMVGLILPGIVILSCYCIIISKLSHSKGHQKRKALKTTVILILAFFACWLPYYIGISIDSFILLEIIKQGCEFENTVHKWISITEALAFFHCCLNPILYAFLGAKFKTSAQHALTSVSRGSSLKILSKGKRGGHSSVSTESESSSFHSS

Regarding `CN1C(=O)[C@@H](Cc2ccc(O)cc2)NC(=O)CNC(=O)[C@H](Cc2ccc3ccccc3c2)NC(=O)[C@H](CCCNC(=N)N)NC(=O)[C@H]1CCCNC(=O)c1ccc(NN)nc1` [[^99mTc]Tc-HYNIC-CPCR4, cyclo(D-Tyr-N-Me-D-Orn([^99mTc]Tc-HYNIC)-Arg-2-Nal-G), metal not drawn] (cyclo([2Nal]G[dY][dNMeOrn](HYNIC)R)), the “Lipophilicity (logD)” value in series [1] is recorded as “− 1.84”. In series [2], the “effective dose per unit of administered activity” value is given as 3.92E − 03 mSv/MBq.
On to `C[C@@H](NC(=O)[C@@H](CCCNC(=N)N)NC(=O)[C@@H](CN)NC(=O)c1ccc(NN)nc1)C(=O)Nc1ccc(C(=O)NCCC[C@@H]2C(=O)N[C@@H](CCCNC(=N)N)C(=O)N[C@@H](Cc3ccc4ccccc4c3)C(=O)NCC(=O)N[C@H](Cc3ccc(O)cc3)C(=O)N2C)cc1` [[^99mTc]Tc-HYNIC-L6-CPCR4, metal not drawn] (cyclo([dY][dNMeOrn]([4Abz-dA-dR-dDap-HYNIC])R[2Nal]G)), for which the “internalization in % of total activity” value in series [3] stood at 77%. In addition, in series [3], the “Internalization (% of reference)” value is reported as 503 (90 min) % of reference. Besides, the “internalization area under the curve (AUC)” value in series [3] came out at 2370. Moreover, the tissue uptake at 1 h in series [4] (blood, read-out: Biodistribution Blood) turned out to be 1.6 ± 0.6 %ID/g; in series [4] (femur, read-out: Biodistribution Femur), 0.8 ± 0.4 %ID/g; in series [4] (heart, read-out: Biodistribution Heart), 0.8 ± 0.3 %ID/g; in series [4] (intestines, read-out: Biodistribution Intestines), 0.6 ± 0.1 %ID/g; in series [4] (kidneys, read-out: Biodistribution Kidneys) it was 29.5 ± 4.4 %ID/g; in series [4] (liver, read-out: Biodistribution Liver), 2.6 ± 0.2 %ID/g. The tissue uptake at 1 h in series [4] (lung, read-out: Biodistribution Lung) is 1.9 ± 0.4 %ID/g; in series [4] (muscle, read-out: Biodistribution Muscle) it was 1.5 ± 1.1 %ID/g; in series [4] (pancreas, read-out: Biodistribution Pancreas), 0.4 ± 0.3 %ID/g; in series [4] (spleen, read-out: Biodistribution Spleen), 2.4 ± 1.1 %ID/g; in series [4] (stomach, read-out: Biodistribution Stomach), 2 ± 0.7 %ID/g. Besides, in series [5], the “Biodistribution Tumor (tumor accumulation)” value is 8.0 ± 2.2 %iD/g.
`C[C@@H](NC(=O)[C@@H](CCCNC(=N)N)NC(=O)[C@@H](CN)NC(=O)[C@@H](CO)NC(=O)[C@@H](CO)NC(=O)[C@@H](CO)NC(=O)CS)C(=O)Nc1ccc(C(=O)NCCC[C@@H]2C(=O)N[C@@H](CCCNC(=N)N)C(=O)N[C@@H](Cc3ccc4ccccc4c3)C(=O)NCC(=O)N[C@H](Cc3ccc(O)cc3)C(=O)N2C)cc1` [[^99mTc]Tc-mas3-L6-CPCR4, metal not drawn] (I: Mercaptoacetyl-[dS][dS][dS][dDap][dR][dA][4Abz] / II: cyclo([dY][dNMeOrn]R[2Nal]G); amide I:C-II:2): in series [3], the “internalization in % of total activity” value amounted to 80%, the “Internalization (% of reference)” value is given as 525 (90 min) % of reference and the “internalization area under the curve (AUC)” value came to 2430. Further, the “Biodistribution Tumor (tumor accumulation)” value in series [5] is 6.6 ± 1.0 %iD/g.
The term IC50 denotes the midpoint of a concentration-inhibition curve. Take `CN1C(=O)[C@@H](Cc2ccc(O)c(I)c2)NC(=O)CNC(=O)[C@H](Cc2ccc3ccccc3c2)NC(=O)[C@H](CCCNC(=N)N)NC(=O)[C@H]1CCCNC(=O)c1ccc(CNC(=O)CN2CCN(CC(=O)O)CCN(CC(=O)O)CCN(CC(=O)O)CC2)cc1` [^natLu-PentixaTher, metal not drawn] (cyclo([dTyr(3-I)][dNMeOrn]([4Amb-DOTA])R[2Nal]G); ring closure inferred): the IC50 in the series with mCXCR4 was 0.567 ± 0.062 µM.
As to `C[C@@H](NC(=O)[C@@H](CCCNC(=N)N)NC(=O)[C@@H](CN)NC(=O)[C@@H](CO)NC(=O)[C@@H](CO)NC(=O)[C@@H](CO)NC(=O)CS)C(=O)Nc1ccc(C(=O)NCCC[C@@H]2C(=O)N[C@@H](CCCNC(=N)N)C(=O)N[C@@H](Cc3ccc4ccccc4c3)C(=O)NCC(=O)N[C@H](Cc3ccc(O)cc3)C(=O)N2C)cc1` [mas3-L6-CPCR4, mas3-dap-r-a-Abz-CPCR4] (I: Mercaptoacetyl-[dS][dS][dS][dDap][dR][dA][4Abz] / II: cyclo([dY][dNMeOrn]R[2Nal]G); amide I:C-II:2), the 50% inhibitory concentration (IC50) on human CXCR4 (hCXCR4) came to 0.005 ± 0.0013 µM.
